PubChem BioAssay AID330 (DTP/NCI, 2004)
Toxic doses and inconclusive results are not listed. The calls were made as follows: active = survival T/C of 150% or more; inactive = T/C below 125% in these data.

System: P388 leukemia ip, CD2F1 mice, survival T/C
Test: NCI In Vivo Anticancer Drug Screen. Data for tumor model P388 Leukemia (intraperitoneal) in CD2F1 (CDF1) mice
Details: endpoint: median survival time, higher = longer survival
Method in brief: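 Mice carrying the transplanted tumor received test compound or vehicle. Survival was recorded in each group, and the value is the treated-group measurement divided by that of the vehicle-treated control group.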

[1] = dose: 60.0 mg/kg/injection, schedule: Q01DX005 (ip), vehicle: saline with Tween-80
[2] = dose: 120.0 mg/kg/injection, schedule: Q01DX005 (ip), vehicle: saline with Tween-80
[3] = dose: 240.0 mg/kg/injection, schedule: Q01DX005 (ip), vehicle: saline with Tween-80
[4] = dose: 50.0 mg/kg/injection, schedule: Q01DX005 (ip), vehicle: saline with Tween-80
[5] = dose: 100.0 mg/kg/injection, schedule: Q01DX005 (ip), vehicle: saline with Tween-80
[6] = dose: 200.0 mg/kg/injection, schedule: Q01DX005 (ip), vehicle: saline with Tween-80
[7] = dose: 100.0 mg/kg/injection, schedule: Q01DX009 (ip), vehicle: saline with Tween-80
[8] = dose: 200.0 mg/kg/injection, schedule: Q01DX009 (ip), vehicle: saline with Tween-80
[9] = dose: 12.5 mg/kg/injection, schedule: Q01DX009 (ip), vehicle: saline with Tween-80
[10] = dose: 25.0 mg/kg/injection, schedule: Q01DX009 (ip), vehicle: saline with Tween-80
[11] = dose: 50.0 mg/kg/injection, schedule: Q01DX009 (ip), vehicle: saline with Tween-80
[12] = dose: 50.0 mg/kg/injection, schedule: Q01DX005 (ip), vehicle: Klucel (hydroxypropylcellulose) (HPC)
[13] = dose: 100.0 mg/kg/injection, schedule: Q01DX005 (ip), vehicle: Klucel (hydroxypropylcellulose) (HPC)
[14] = dose: 200.0 mg/kg/injection, schedule: Q01DX005 (ip), vehicle: Klucel (hydroxypropylcellulose) (HPC)
[15] = dose: 100.0 mg/kg/injection, schedule: Q04DX002 (ip), vehicle: saline with Tween-80
[16] = dose: 200.0 mg/kg/injection, schedule: Q04DX002 (ip), vehicle: saline with Tween-80
[17] = dose: 400.0 mg/kg/injection, schedule: Q04DX002 (ip), vehicle: saline with Tween-80

Measured: T/C

C=CCC(O)C(=O)OC1CC(C)CCC1C(C)(C)c1ccccc1 (centres undefined)
inactive: [1] 106 % of control | [2] 100 % of control | [3] 107 % of control

C/C(C=O)=C\c1ccc(N(C)C)cc1
inactive: dose: 60.0 mg/kg/injection, schedule: Q01DX005 (ip), vehicle: Klucel (hydroxypropylcellulose) (HPC) 101 % of control | dose: 120.0 mg/kg/injection, schedule: Q01DX005 (ip), vehicle: Klucel (hydroxypropylcellulose) (HPC) 101 % of control | dose: 240.0 mg/kg/injection, schedule: Q01DX005 (ip), vehicle: Klucel (hydroxypropylcellulose) (HPC) 100 % of control

O=C1CCCCc2scc(C(=O)O)c2N1
inactive: dose: 100.0 mg/kg/injection, schedule: Q04DX003 (ip), vehicle: Klucel (hydroxypropylcellulose) (HPC) 104 % of control | dose: 200.0 mg/kg/injection, schedule: Q04DX003 (ip), vehicle: Klucel (hydroxypropylcellulose) (HPC) 111 % of control | dose: 400.0 mg/kg/injection, schedule: Q04DX003 (ip), vehicle: Klucel (hydroxypropylcellulose) (HPC) 102 % of control

C=COC(=O)C(Cc1ccc(OC)cc1)NC(=O)OCc1ccccc1 (centres undefined)
inactive: dose: 100.0 mg/kg/injection, schedule: Q04DX002 (ip), vehicle: Klucel (hydroxypropylcellulose) (HPC) 103 % of control | dose: 200.0 mg/kg/injection, schedule: Q04DX002 (ip), vehicle: Klucel (hydroxypropylcellulose) (HPC) 91 % of control | dose: 400.0 mg/kg/injection, schedule: Q04DX002 (ip), vehicle: Klucel (hydroxypropylcellulose) (HPC) 94 % of control

C[PH+](C)C.C[PH+](C)C.[Au]
inactive: dose: 1.25 mg/kg/injection, schedule: Q01DX009 (ip), vehicle: saline 112 % of control | dose: 2.5 mg/kg/injection, schedule: Q01DX009 (ip), vehicle: saline 114 % of control | dose: 5.0 mg/kg/injection, schedule: Q01DX009 (ip), vehicle: saline 116 % of control

COc1ccc2nc3cc(Cl)ccc3c(NCC(O)CNc3c4ccc(Cl)cc4nc4ccc(OC)nc34)c2n1
inactive: [1] 92 % of control | [2] 90 % of control | [3] 90 % of control

CCn1c2ccccc2c2cc(NC(=O)Nc3ccc4c(c3)c3ccccc3n4CC)ccc21
inactive: [4] 90 % of control | [5] 97 % of control | [6] 109 % of control

O=C(CCCCC(=O)N/N=C\c1ccccn1)N/N=C\c1ccccn1
inactive: [7] 109 % of control | [8] 100 % of control | dose: 400.0 mg/kg/injection, schedule: Q01DX009 (ip), vehicle: saline with Tween-80 109 % of control

CCC(=O)c1ccc(OCC(O)COc2c3ccccc3nc3ccccc23)cc1 (centres undefined)
inactive: [4] 87 % of control | [5] 90 % of control | [6] 92 % of control

COc1ccccc1C1=NC(C)(C)CO1
inactive: [4] 99 % of control | [5] 94 % of control | [6] 91 % of control

CCCC(C#N)OC(=O)c1ccccc1 (centres undefined)
inactive: [9] 104 % of control | [10] 100 % of control | [11] 104 % of control

NC(=O)CCC(NS(=O)(=O)c1ccc(NC(=O)c2ccc(Cl)cc2)cc1)C(=O)O (centres undefined)
inactive: [12] 104 % of control | [13] 102 % of control | [14] 102 % of control

COc1cc2c(cc1O)C(c1cc(O)c(O)c(OC)c1)C(O)(C(=O)O)C(CO)C2O (centres undefined)
inactive: [4] 100 % of control | [5] 101 % of control | [6] 99 % of control

CCOc1c(N=Nc2ccc(OC)cc2)c(-c2ccccc2)nn1C(N)=S
inactive: [4] 100 % of control | [5] 100 % of control | [6] 102 % of control

CCOc1ccc(N=Nc2c(C)nn(C(=S)SC)c2OCC)cc1
inactive: dose: 60.0 mg/kg/injection, schedule: Q01DX005 (ip), vehicle: Klucel + Tween-80 95 % of control | dose: 120.0 mg/kg/injection, schedule: Q01DX005 (ip), vehicle: Klucel + Tween-80 95 % of control | dose: 240.0 mg/kg/injection, schedule: Q01DX005 (ip), vehicle: Klucel + Tween-80 94 % of control

CC(C)C(O)Cc1cc(=O)[nH]c2ccccc12 (centres undefined)
inactive: [15] 87 % of control | [16] 87 % of control | [17] 86 % of control

Clc1ccc(N=Cc2c3ccccc3cc3ccccc23)c(Cl)c1
inactive: dose: 6.25 mg/kg/injection, schedule: Q01DX009 (ip), vehicle: saline with Tween-80 101 % of control | [9] 101 % of control | [10] 93 % of control

CCCC[P+](c1ccccc1)(c1ccccc1)c1ccccc1
inactive: dose: 5.0 mg/kg/injection, schedule: Q01DX009 (ip), vehicle: saline sonified 118 % of control | dose: 10.0 mg/kg/injection, schedule: Q01DX009 (ip), vehicle: saline sonified 122 % of control | dose: 13.2 mg/kg/injection, schedule: Q01DX009 (ip), vehicle: saline sonified 118 % of control | dose: 20.0 mg/kg/injection, schedule: Q01DX009 (ip), vehicle: saline sonified 118 % of control | dose: 30.0 mg/kg/injection, schedule: Q01DX009 (ip), vehicle: saline sonified 90 % of control

CC(C)(/C=N/O)N1CC=CCC1
inactive: dose: 12.5 mg/kg/injection, schedule: Q04DX002 (ip), vehicle: saline with Tween-80 101 % of control | dose: 25.0 mg/kg/injection, schedule: Q04DX002 (ip), vehicle: saline with Tween-80 100 % of control | dose: 50.0 mg/kg/injection, schedule: Q04DX002 (ip), vehicle: saline with Tween-80 97 % of control

CCOC(=O)C(CC(C(=O)O)c1ccccc1)c1ccccc1 (centres undefined)
inactive: [12] 100 % of control | [13] 96 % of control | [14] 96 % of control

CCOC(=O)C(=CNCc1ccccc1)C(=O)OCC
inactive: dose: 15.0 mg/kg/injection, schedule: Q01DX009 (ip), vehicle: saline with Tween-80 106 % of control | dose: 30.0 mg/kg/injection, schedule: Q01DX009 (ip), vehicle: saline with Tween-80 104 % of control | dose: 60.0 mg/kg/injection, schedule: Q01DX009 (ip), vehicle: saline with Tween-80 95 % of control

CC(C)(CC(=O)OCCO)c1cc(CC(C)(C)c2cc(CC(C)(C)c3cc(CC(C)(C)C4(C)OCCO4)no3)no2)no1
inactive: [15] 88 % of control | [16] 87 % of control | [17] 87 % of control

COC(=O)/C=C1\Sc2ccccc2NC1=O
inactive: [11] 96 % of control | [7] 96 % of control | [8] 94 % of control

CN(C)Cc1cnccc1I
inactive: dose: 50.0 mg/kg/injection, schedule: Q01DX005 (ip), vehicle: suspension in saline 101 % of control | dose: 100.0 mg/kg/injection, schedule: Q01DX005 (ip), vehicle: suspension in saline 104 % of control | dose: 200.0 mg/kg/injection, schedule: Q01DX005 (ip), vehicle: suspension in saline 108 % of control

CCC(c1ccc(OC(=O)Cc2ccc(N(CCCl)CCCl)cc2)cc1)C(CC)c1ccc(OC(=O)Cc2ccc(N(CCCl)CCCl)cc2)cc1 (centres undefined)
inactive: dose: 80.0 mg/kg/injection, schedule: Q01DX009 (ip), vehicle: saline with Tween-80 92 % of control | dose: 120.0 mg/kg/injection, schedule: Q01DX009 (ip), vehicle: saline with Tween-80 93 % of control | dose: 180.0 mg/kg/injection, schedule: Q01DX009 (ip), vehicle: saline with Tween-80 89 % of control | dose: 270.0 mg/kg/injection, schedule: Q01DX009 (ip), vehicle: saline with Tween-80 90 % of control | dose: 405.0 mg/kg/injection, schedule: Q01DX009 (ip), vehicle: saline with Tween-80 92 % of control
